How the values were obtained:
Assay in all cases: relative viability (nuclei count vs DMSO), 5 days (fraction); higher = more cells survive
AZ628 + Crizotinib = compound: CC1=C(C=C(C=C1)NC(=O)C2=CC(=CC=C2)C(C)(C)C#N)NC3=CC4=C(C=C3)N=CN(C4=O)C [AZ628] + C[C@@H](Oc1cc(-c2cnn(C3CCNCC3)c2)cnc1N)c1c(Cl)ccc(F)c1Cl [Crizotinib] (partner 1 µM)
Procedure, shortened: (§1)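 Dosing by pin tool came one day after lung cancer cell lines were seeded in 1536-well plates, using either one drug or a fixed anchor-drug dose plus five library-drug doses (not always all listed) in √10 steps. After 5 days, nuclei were counted on 4× images. Relative viability is treated-well nuclei count divided by vehicle-well nuclei count, and values are medians of duplicate plates.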

AZ628 + Bortezomib = compound: CC1=C(C=C(C=C1)NC(=O)C2=CC(=CC=C2)C(C)(C)C#N)NC3=CC4=C(C=C3)N=CN(C4=O)C [AZ628] + CC(C)C[C@H](NC(=O)[C@H](Cc1ccccc1)NC(=O)c1cnccn1)B(O)O [Bortezomib] (partner 0.002 µM)
Procedure, shortened: as §1

AZ628 + Dasatinib = compound: CC1=C(C=C(C=C1)NC(=O)C2=CC(=CC=C2)C(C)(C)C#N)NC3=CC4=C(C=C3)N=CN(C4=O)C [AZ628] + Cc1nc(Nc2ncc(C(=O)Nc3c(C)cccc3Cl)s2)cc(N2CCN(CCO)CC2)n1 [Dasatinib] (partner 0.075 µM)
Procedure, shortened: as §1

QS11 + Bortezomib = compound: C1CC2=C(C1)C=C(C=C2)OC3=NC(=C4C(=N3)N(C=N4)CC5=CC=C(C=C5)C6=CC=CC=C6)N[C@@H](CC7=CC=CC=C7)CO [QS11] + CC(C)C[C@H](NC(=O)[C@H](Cc1ccccc1)NC(=O)c1cnccn1)B(O)O [Bortezomib] (partner 0.002 µM)
Procedure, shortened: as §1

Cell Line | relative viability (AZ628 + Crizotinib; first compound 0.08 µM) | relative viability (AZ628 + Crizotinib; first compound 0.253 µM) | relative viability (AZ628 + Crizotinib; first compound 0.8 µM) | relative viability (AZ628 + Crizotinib; first compound 2.53 µM) | relative viability (AZ628 + Crizotinib; first compound 8 µM) | relative viability (AZ628 + Bortezomib; first compound 0.08 µM) | relative viability (AZ628 + Bortezomib; first compound 0.253 µM) | relative viability (AZ628 + Bortezomib; first compound 0.8 µM) | relative viability (AZ628 + Bortezomib; first compound 2.53 µM) | relative viability (AZ628 + Bortezomib; first compound 8 µM) | relative viability (AZ628 + Dasatinib; first compound 0.08 µM) | relative viability (AZ628 + Dasatinib; first compound 0.253 µM) | relative viability (AZ628 + Dasatinib; first compound 0.8 µM) | relative viability (AZ628 + Dasatinib; first compound 2.53 µM) | relative viability (AZ628 + Dasatinib; first compound 8 µM) | relative viability (QS11 + Bortezomib; first compound 0.08 µM) | relative viability (QS11 + Bortezomib; first compound 0.253 µM) | relative viability (QS11 + Bortezomib; first compound 0.8 µM) | relative viability (QS11 + Bortezomib; first compound 2.53 µM) | relative viability (QS11 + Bortezomib; first compound 8 µM)
NCI-H2405 | 0.478 | 0.66 | 0.522 | 0.588 | 0.568 | 0.756 | 0.864 | 0.548 | 0.68 | 1.09 | 0.175 | 0.201 | 0.189 | 0.172 | 0.23 | 0.926 | 0.946 | 0.895 | 1.03 | 1.03
NCI-H2087 | 0.926 | 1.04 | 1.03 | 0.926 | 0.362 | 0.831 | 0.738 | 0.783 | 0.775 | 0.399 | 0.565 | 0.32 | 0.226 | 0.237 | 0.154 | 0.766 | 0.776 | 0.677 | 0.636 | 0.48
NCI-H460 | 1.03 | 0.92 | 0.872 | 0.7 | 0.38 | 1.18 | 1.13 | 0.8 | 0.994 | 0.952 | 0.569 | 0.428 | 0.362 | 0.407 | 0.132 | 1.04 | 1.13 | 0.819 | 0.973 | 0.345
LCLC-103H | 1.13 | 1.08 | 1.11 | 1.09 | 1.01 | 0.932 | 1.13 | 1.09 | 1.02 | 1.18 | 0.559 | 0.427 | 0.523 | 0.399 | 0.478 | 1.04 | 1.1 | 0.811 | 1.07 | 0.891
NCI-H1650 | 1.13 | 0.965 | 0.998 | 0.984 | 0.841 | 0.165 | 0.203 | 0.18 | 0.203 | 0.214 | 0.319 | 0.366 | 0.318 | 0.296 | 0.249 | 0.183 | 0.215 | 0.18 | 0.197 | 0.186
NCI-H441 | 0.809 | 0.569 | 0.541 | 0.694 | 0.78 | 0.733 | 0.47 | 0.973 | 0.454 | 0.441 | 0.643 | 0.577 | 0.598 | 0.567 | 0.277 | 0.437 | 0.536 | 0.475 | 0.444 | 0.299
